Experimental data taken from ChEMBL document CHEMBL1140141 (J Nat Prod, 2008).

Legend:
[1] = biological target: T1, Alpha-2A adrenergic receptor (Homo sapiens, UniProt P08913); test: Displacement of [3H]MK912 from human cloned adrenergic alpha-2a receptor
T1 sequence (P08913 whole entry): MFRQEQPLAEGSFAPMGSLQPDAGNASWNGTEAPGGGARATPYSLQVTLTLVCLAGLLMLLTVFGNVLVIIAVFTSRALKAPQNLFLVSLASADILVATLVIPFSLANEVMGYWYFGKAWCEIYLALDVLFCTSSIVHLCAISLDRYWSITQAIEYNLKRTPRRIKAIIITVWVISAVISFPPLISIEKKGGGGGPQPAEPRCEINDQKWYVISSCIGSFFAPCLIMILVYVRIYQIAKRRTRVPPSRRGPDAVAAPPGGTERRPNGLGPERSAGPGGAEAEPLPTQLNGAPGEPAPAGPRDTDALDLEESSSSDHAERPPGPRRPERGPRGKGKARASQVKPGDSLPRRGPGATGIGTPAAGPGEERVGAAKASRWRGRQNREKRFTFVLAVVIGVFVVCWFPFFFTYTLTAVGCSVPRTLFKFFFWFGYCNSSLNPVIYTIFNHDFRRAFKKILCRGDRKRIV

Histamine H2 receptor = Histamine H2 receptor (Cavia porcellus, UniProt P47747); test: Displacement of [125I]-APT from histamine H2 receptor in brain of guinea pig; assay type: tissue-based
Sequence of Histamine H2 receptor (P47747 whole entry, looked up): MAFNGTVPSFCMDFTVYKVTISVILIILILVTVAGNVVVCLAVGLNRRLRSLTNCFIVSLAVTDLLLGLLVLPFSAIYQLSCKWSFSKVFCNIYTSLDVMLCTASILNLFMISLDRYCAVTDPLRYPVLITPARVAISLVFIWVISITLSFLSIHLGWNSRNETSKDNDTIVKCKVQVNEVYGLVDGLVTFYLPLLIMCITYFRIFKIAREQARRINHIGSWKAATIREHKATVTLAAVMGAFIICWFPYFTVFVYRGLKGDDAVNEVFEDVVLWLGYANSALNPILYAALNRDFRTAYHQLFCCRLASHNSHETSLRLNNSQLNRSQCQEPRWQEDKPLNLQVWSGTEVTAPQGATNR

[2] = biological target: T2, Alpha-1D adrenergic receptor (Homo sapiens, UniProt P25100); test: Inhibition of cloned adrenergic Alpha-1D receptor
T2 sequence (P25100 whole entry): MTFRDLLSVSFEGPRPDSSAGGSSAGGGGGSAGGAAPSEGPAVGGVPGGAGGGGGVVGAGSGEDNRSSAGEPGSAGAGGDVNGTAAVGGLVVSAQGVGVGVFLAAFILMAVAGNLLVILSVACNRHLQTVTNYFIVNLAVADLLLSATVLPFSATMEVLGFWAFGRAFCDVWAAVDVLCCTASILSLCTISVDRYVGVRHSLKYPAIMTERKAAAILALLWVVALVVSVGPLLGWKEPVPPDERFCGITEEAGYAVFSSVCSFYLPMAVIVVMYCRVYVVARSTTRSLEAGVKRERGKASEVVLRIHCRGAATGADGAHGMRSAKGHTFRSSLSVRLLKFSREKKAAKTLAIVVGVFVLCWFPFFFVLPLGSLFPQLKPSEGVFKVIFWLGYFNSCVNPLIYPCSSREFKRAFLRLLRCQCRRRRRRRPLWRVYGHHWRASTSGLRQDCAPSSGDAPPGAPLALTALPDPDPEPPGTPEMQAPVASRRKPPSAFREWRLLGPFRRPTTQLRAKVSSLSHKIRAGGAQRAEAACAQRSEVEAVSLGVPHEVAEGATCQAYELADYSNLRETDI

Histamine H3 receptor = Histamine H3 receptor (Rattus norvegicus, UniProt Q9QYN8); test: Displacement of [3H]SMT from histamine H3 receptor in forebrain of rat
Sequence of Histamine H3 receptor (Q9QYN8 whole entry): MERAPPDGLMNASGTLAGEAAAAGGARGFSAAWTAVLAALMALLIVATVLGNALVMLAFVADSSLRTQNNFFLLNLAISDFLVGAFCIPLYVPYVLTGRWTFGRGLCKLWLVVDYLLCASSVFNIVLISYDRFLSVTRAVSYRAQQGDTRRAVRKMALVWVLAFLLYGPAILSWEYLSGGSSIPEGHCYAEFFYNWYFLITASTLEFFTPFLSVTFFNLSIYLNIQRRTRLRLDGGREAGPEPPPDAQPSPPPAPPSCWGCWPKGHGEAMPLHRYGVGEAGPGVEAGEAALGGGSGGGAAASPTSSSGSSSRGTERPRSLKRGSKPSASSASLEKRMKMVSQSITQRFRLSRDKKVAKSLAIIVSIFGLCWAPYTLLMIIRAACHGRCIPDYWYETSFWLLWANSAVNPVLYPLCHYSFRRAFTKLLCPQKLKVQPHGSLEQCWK

hERG (KCNH2) = hERG (KCNH2) (Homo sapiens, UniProt Q12809); test: Inhibition of human ERG at 10 uM
Sequence of hERG (KCNH2) (Q12809 whole entry): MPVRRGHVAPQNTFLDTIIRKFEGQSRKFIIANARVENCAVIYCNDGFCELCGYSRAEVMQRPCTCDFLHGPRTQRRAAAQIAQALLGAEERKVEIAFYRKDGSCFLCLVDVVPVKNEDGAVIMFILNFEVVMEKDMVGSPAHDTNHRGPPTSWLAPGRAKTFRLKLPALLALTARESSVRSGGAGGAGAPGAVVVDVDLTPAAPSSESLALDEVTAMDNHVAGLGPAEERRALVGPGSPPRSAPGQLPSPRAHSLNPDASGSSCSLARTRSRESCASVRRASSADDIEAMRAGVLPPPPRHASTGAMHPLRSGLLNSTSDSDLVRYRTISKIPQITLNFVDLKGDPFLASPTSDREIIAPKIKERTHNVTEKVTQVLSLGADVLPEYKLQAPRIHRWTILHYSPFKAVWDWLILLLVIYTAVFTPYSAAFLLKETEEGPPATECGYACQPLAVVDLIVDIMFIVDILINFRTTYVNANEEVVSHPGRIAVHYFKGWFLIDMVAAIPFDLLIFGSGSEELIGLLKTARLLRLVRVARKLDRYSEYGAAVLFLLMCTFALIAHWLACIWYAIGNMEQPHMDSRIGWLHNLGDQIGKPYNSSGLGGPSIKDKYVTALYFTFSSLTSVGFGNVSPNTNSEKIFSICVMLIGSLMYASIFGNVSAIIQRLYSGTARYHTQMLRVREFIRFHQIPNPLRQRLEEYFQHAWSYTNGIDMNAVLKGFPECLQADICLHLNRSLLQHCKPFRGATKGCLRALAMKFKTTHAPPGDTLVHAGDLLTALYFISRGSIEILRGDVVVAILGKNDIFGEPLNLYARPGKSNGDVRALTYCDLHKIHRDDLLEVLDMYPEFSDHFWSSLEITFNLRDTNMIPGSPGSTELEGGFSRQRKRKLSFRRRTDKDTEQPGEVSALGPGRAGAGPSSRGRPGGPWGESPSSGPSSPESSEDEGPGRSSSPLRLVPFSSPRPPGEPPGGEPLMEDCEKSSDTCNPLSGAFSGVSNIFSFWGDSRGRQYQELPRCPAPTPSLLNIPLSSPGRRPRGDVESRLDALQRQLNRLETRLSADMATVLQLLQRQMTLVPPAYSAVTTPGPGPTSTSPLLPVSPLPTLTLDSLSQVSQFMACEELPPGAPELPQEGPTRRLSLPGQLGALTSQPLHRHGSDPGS

[3] = Inhibition of L-type calcium channel at 10 uM
[4] = biological target: T3, Alpha-1D adrenergic receptor (Homo sapiens) (UniProt P25100); conditions: 10 uM
T3 sequence (whole entry): T2 sequence (P25100 whole entry)
Description: Inhibition of cloned adrenergic Alpha-1D receptor at 10 uM

[5] = biological target: T4, Alpha-2A adrenergic receptor (Homo sapiens) (UniProt P08913); test: Displacement of [3H]MK912 from human cloned adrenergic alpha-2a receptor at 10 uM
T4 sequence (whole entry): T1 sequence (P08913 whole entry)

[6] = biological target: Histamine H3 receptor (Rattus norvegicus) (UniProt Q9QYN8); conditions: 10 uM
Sequence of Histamine H3 receptor (Rattus norvegicus) (Q9QYN8 whole entry): as the sequence (Q9QYN8 whole entry) above
Description: Displacement of [3H]SMT from histamine H3 receptor in forebrain of rat at 10 uM

IC50 [1]: 0.185 µM
Ki [1]: 0.069 µM
IC50 (Histamine H2 receptor): 1.25 µM
Ki (Histamine H2 receptor): 1.02 µM
IC50 [2]: 0.56 µM
Ki [2]: 0.275 µM
IC50 (Histamine H3 receptor): 2.35 µM
Ki (Histamine H3 receptor): 1.04 µM
inhibition [3]: 50%
inhibition [4]: 91%
inhibition [5]: 97%
inhibition [6]: 91%
Structure (SMILES): CN(C)CCCOc1ccc(CCNC(=O)c2cc(Br)c[nH]2)cc1Br [DISPYRIN]
inhibition at 10 µM (hERG (KCNH2)): 50%
